This is an account of results in patent US7638637B2, “Orally available sphingosine 1-phosphate receptor agonists and antagonists” (University of Virginia Patent Foundation, priority 2003, dated 2009).

Entries after “also recorded” stand apart in the source; their conditions may differ.

Assay type in all cases: biochemical
Assay [1] concerns S1P receptors. In words: [γ-35S]GTP binding assay, recombinant S1P receptors in general. The conditions noted are these: each receptor. On the procedure: (§1) The same results were obtained regardless of whether the recombinant receptor used exogenous G proteins (HEK293T cells) or endogenous G proteins (RH7777 cells). In addition, insect Sf9 cells infected with recombinant baculovirus encoding receptors (e.g. […] The Sf9 cell and HEK293T cell membranes gave similar results. Furthermore, the activities measured in the broken cell assay predicted the responses seen in whole cell assays. […] After incubating for 30 minutes at 30° C., bound radionuclide was separated from free by filtration through Whatman GF/C paper using a Brandel Cell Harvester (Gaithersburg, Md.). Assay of cAMP accumulation was performed as described previously (See Im et al., J. Biol. […] Assays were conducted on populations of 5×10^5 cells stimulated with 1 μM forskolin in the presence of the phosphodiesterase inhibitor isomethylbutylxanthine (IBMX, 1 mM) for 15 minutes. cAMP was measured by automated radioimmunoassay.

Assay [2] has as its target T1, zS1P1 (Danio rerio, UniProt Q9DDK4).
T1 construct: expressed in transfected cells; host or cells: rat hepatoma RH-7777 cells
T1 sequence (Q9DDK4 1-362): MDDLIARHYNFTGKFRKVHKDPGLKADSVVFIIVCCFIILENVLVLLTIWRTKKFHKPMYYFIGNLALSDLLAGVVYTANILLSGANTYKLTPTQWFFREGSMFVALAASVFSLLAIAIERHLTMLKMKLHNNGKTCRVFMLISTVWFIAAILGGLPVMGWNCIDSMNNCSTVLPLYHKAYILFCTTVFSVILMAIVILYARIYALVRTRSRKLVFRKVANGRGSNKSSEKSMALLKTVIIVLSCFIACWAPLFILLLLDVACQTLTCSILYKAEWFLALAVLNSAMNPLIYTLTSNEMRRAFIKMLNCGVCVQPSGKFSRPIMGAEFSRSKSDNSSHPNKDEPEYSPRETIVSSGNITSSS
In words: [γ-35S]GTP binding assay, zebrafish S1P1 overexpressed in rat RH-7777 cells. Conditions: read-out: EC50 Values (nM) for S1P Analogues at Recombinant S1P Receptors, zS1P1; GTPγS binding; zebrafish S1P1 overexpressed rat RH-7777. On the procedure: (§2) After incubating for 30 minutes at 30° C., bound radionuclide was separated from free by filtration through Whatman GF/C paper using a Brandel Cell Harvester (Gaithersburg, Md.).
Rat hepatoma RH7777 cell monolayers were transfected with human or mouse S1P5/pCR3.1 DNA using the calcium phosphate precipitate method, and clonal populations expressing the neomycin phosphotransferase gene were selected by addition of geneticin (G418) to the culture medium. The RH7777 cells were grown in monolayers at 37° C. in a 5% CO2/95% air atmosphere in growth medium consisting of 90% MEM, […], 2 mM glutamine, and 1 mM sodium pyruvate.
(§3) Assay of cAMP accumulation was performed as described previously (See Im et al., J. Biol. Chem. 275, 14281-14286 (2000), the disclosure of which is incorporated herein). Assays were conducted on populations of 5×10^5 cells stimulated with 1 μM forskolin in the presence of the phosphodiesterase inhibitor isomethylbutylxanthine (IBMX, 1 mM) for 15 minutes. cAMP was measured by automated radioimmunoassay. The GTPγS studies were performed using zebrafish S1P1 overexpressed rat RH-7777 and human hS1P1, hS1P2, hS1P3 and hS1P5 overexpressed human HEK293 cells.
(Binding of GTPγS marks nucleotide exchange on a G protein.)

Assay [3] deals with T2, hS1P1 (Homo sapiens, UniProt P21453).
T2 construct: expressed in transfected cells; host or cells: HEK293T cells (transient)
In words: [γ-35S]GTP binding assay, HEK293T cell membranes, S1P1. The conditions noted are these: GTPγS binding; for EC50: read-out: EC50 Values (nM) for S1P Analogues at Recombinant S1P Receptors, hS1P1, overexpressed human HEK293 cells. The method, then:
(§4) Human or mouse S1P5 DNA was mixed with an equal amount of DNA encoding a rat Gi2R protein as well as DNAs encoding cow β1 and γ2 proteins and used to transfect monolayers of HEK293T cells using the calcium phosphate precipitate method. After 60 hours, cells were harvested, and microsomes were prepared, aliquoted, and stored at −70° C. until use.
as §2, §3
(§5) An additional series of compounds was tested using the GTPCS binding assay described in Example 2 and in Im et al., J. Biol. Chem. 275, 14281-14286 (2000), the disclosure of which is incorporated herein).

The target in assay [4] is T3, hS1P3 (Homo sapiens, UniProt Q99500).
T3 construct: expressed in transfected cells; host or cells: HEK293T cells (transient)
In words: [γ-35S]GTP binding assay, HEK293T cell membranes, S1P3. The conditions noted are these: GTPγS binding; for EC50: read-out: EC50 Values (nM) for S1P Analogues at Recombinant S1P Receptors, hS1P3, overexpressed human HEK293 cells. The method, then: as §4, §2, §3, §5

In assay [5] the target is T4, hS1P2 (Homo sapiens, UniProt O95136).
T4 construct: expressed in transfected cells; host or cells: HEK293T cells (transient)
In words: [γ-35S]GTP binding assay, HEK293T cell membranes, S1P2. Conditions: GTPγS binding; for EC50: read-out: EC50 Values (nM) for S1P Analogues at Recombinant S1P Receptors, hS1P2, overexpressed human HEK293 cells. The method, then: as §4, §2, §3, §5

The target of assay [6] is T5, hS1P5 (Homo sapiens, UniProt Q9H228).
T5 construct: expressed in transfected cells; host or cells: HEK293T cells (transient, calcium phosphate)
In words: [γ-35S]GTP binding assay, HEK293T cell membranes, S1P5. Conditions: read-out: EC50 Values (nM) for S1P Analogues at Recombinant S1P Receptors, hS1P5; GTPγS binding; overexpressed human HEK293 cells. On the procedure:
as §4, §2, §3, §5

Assay [7] has as its target T6, mS1P5 (Mus musculus, UniProt Q91X56).
T6 construct: expressed in transfected cells; host or cells: HEK293T cells (transient)
In words: [γ-35S]GTP binding assay, mouse S1P5. Conditions: read-out: EC50 Values (nM) for S1P Analogues at Recombinant S1P Receptors, mS1P5, GTPγS binding. On the procedure: as §4, §2, §3

The target in assay [8] is T7, hS1P4 (Homo sapiens, UniProt O95977).
T7 construct: expressed in transfected cells; host or cells: HEK293T cells (transient)
T7 sequence (O95977 1-384): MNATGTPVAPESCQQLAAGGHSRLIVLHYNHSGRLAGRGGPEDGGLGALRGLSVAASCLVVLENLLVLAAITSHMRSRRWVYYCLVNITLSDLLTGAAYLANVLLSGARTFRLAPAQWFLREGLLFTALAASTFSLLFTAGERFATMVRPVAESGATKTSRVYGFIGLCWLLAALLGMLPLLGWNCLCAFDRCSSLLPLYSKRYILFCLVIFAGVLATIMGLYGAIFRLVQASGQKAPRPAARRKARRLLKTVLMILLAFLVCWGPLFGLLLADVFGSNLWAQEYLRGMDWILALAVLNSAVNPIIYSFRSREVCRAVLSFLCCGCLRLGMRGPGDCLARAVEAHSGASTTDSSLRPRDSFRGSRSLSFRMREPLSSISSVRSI
In words: [γ-35S]GTP binding assay, HEK293T cell membranes, S1P4. Conditions: GTPγS binding. On the procedure: as §2, §5

Assay [9] has as its system T8, S1P receptors.
T8 construct: other: various S1P receptors
In words: [γ-35S]GTP binding assay, recombinant S1P receptors in general. The conditions noted are these: various S1P receptors. On the procedure: as §1

T2 sequence (P21453 whole entry): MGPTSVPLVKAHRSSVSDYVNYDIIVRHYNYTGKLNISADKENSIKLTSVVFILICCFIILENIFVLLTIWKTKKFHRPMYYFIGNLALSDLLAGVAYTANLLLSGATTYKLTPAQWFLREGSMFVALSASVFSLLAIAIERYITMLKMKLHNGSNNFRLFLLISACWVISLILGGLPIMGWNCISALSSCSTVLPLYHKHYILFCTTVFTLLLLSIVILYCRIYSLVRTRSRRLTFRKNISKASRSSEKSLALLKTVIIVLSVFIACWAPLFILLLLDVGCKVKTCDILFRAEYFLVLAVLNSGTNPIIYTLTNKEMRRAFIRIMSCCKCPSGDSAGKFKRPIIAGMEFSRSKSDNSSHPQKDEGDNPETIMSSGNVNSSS
T3 sequence (Q99500 whole entry): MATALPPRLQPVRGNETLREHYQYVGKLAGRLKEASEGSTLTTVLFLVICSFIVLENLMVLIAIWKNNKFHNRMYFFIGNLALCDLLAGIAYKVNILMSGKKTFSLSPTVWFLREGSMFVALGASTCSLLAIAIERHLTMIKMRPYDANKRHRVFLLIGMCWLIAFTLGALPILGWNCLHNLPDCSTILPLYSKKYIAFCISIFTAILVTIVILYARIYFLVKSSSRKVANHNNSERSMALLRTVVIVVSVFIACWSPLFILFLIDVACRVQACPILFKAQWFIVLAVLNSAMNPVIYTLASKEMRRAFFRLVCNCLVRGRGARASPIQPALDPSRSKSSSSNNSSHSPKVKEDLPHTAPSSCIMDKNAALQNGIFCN
T4 sequence (O95136 whole entry): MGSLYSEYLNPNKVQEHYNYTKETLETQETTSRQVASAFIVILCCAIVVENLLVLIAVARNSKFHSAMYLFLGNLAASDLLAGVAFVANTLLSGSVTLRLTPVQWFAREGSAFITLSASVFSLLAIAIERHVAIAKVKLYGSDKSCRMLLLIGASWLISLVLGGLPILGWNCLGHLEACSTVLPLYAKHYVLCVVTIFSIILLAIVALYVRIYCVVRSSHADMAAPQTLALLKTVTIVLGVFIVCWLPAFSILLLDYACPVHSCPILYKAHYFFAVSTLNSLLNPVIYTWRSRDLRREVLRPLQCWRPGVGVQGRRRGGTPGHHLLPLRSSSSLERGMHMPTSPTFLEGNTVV
T6 sequence (Q91X56 whole entry): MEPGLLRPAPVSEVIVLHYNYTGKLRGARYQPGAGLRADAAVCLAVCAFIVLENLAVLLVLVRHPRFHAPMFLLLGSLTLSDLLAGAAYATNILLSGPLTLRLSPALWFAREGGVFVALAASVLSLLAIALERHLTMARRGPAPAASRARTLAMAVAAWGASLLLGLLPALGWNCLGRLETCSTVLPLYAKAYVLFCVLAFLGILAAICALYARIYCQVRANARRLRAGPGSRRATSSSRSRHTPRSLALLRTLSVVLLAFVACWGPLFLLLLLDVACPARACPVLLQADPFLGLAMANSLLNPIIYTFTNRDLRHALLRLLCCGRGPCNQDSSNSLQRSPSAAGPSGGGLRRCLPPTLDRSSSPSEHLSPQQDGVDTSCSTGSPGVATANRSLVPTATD
T5 sequence (Q9H228 whole entry): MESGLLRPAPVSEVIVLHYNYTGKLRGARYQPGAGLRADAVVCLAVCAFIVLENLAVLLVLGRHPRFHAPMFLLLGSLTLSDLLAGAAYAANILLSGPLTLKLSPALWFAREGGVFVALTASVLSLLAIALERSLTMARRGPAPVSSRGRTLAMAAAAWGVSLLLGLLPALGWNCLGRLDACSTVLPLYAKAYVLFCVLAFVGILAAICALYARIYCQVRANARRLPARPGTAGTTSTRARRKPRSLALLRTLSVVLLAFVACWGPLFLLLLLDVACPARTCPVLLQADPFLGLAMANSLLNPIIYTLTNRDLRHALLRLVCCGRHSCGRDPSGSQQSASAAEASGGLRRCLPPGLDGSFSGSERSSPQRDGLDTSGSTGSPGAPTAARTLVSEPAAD

Turning to `CCCCCCCCCCCCC/C=C/[C@@H](O)[C@@H](N)COP(=O)(O)O` [Compound S1P, Sphingosine-1-phosphate, reference compound], the “increase of GTPγS binding at each receptor” value in assay [1] is listed as 2-5 fold.
On to `CCCCCCCCCCCCCCNC(=O)[C@@H](N)COP(=O)(O)O` [VPC22051], for which the EC50 was above 5000 nM in assay [2]; 322 nM in [3]; 602 nM in assay [4]; 2760 nM in assay [5]; above 5000 nM in assay [6]; above 5000 nM in assay [7].
Turning to `CCCCCCCCCCCCCCOC(=O)[C@@H](N)COP(=O)(O)O` [VPC22053], the EC50 was above 5000 nM in assay [2]; 397 nM in [3]; 862 nM in [4]; 2680 nM in assay [5]; 1610 nM in assay [6]; 2010 nM in assay [7]. Also, in assay [3], the “less potent than enantiomer VPC22135 at the S1P1 receptor” value is given as “more than 1 log order”. Further, in assay [4], the “less potent than enantiomer VPC22135 at the S1P3 receptor” value is listed as “more than 1 log order”.
As for `CCCCCCCCCCCCCCNC(=O)[C@H](N)COP(=O)(O)O` [VPC22135], the “potency compared with S1P at the human S1P1 receptor” value in assay [3] is “approached the potency of S1P”. Further, the “potency compared with S1P at the human S1P3 receptor” value in [4] is “approached the potency of S1P”.
For `CCCCCCCCc1cccc(NC(=O)[C@H](N)COP(=O)(O)O)c1` [VPC23019], the “antagonism at S1P1” value in assay [3] (competition with S1P) was “antagonism”. The “agonism or inverse agonism (antagonism) at the S1P3 receptor” value (from here on “agonism or inverse agonism (antagonism)”) in assay [4] is recorded as “inverse agonists”. Further, the “activity at the S1P2 receptor” value in assay [5] was “inactive; also recorded: failed to show significant activity”.
Consider `CCCCCCc1cccc(NC(=O)[C@H](N)COP(=O)(O)O)c1` [VPC23031], for which, in assay [4], the “agonism or inverse agonism (antagonism)” value is on record as “inverse agonists”. Moreover, the “activity at the S1P2 receptor” value in [5] is “inactive; also recorded: failed to show significant activity”.
For `CCCCCCCCCCc1cccc(NC(=O)[C@H](N)CO)c1` [VPC23065], the “activity at the S1P2 receptor” value in [5] was “inactive; also recorded: failed to show significant activity”. Also, the “agonist activity at the S1P4 receptor” value in assay [8] is on record as “good agonist activity”. Moreover, the “agonist activity at S1P receptors” value in assay [9] is reported as “significant agonist activity”.
In the case of `CCCCCCCCCCc1cccc(NC(=O)[C@H](N)COP(=O)(O)O)c1` [VPC23069], the “agonism or inverse agonism (antagonism)” value in assay [4] is on record as “agonism”. Further, in assay [5], the “activity at the S1P2 receptor” value is “inactive; also recorded: failed to show significant activity”.
Take `CCCCCCCCCc1cccc(NC(=O)[C@H](N)CO)c1` [VPC23075]: in assay [5], the “activity at the S1P2 receptor” value was “inactive; also recorded: failed to show significant activity”. In assay [8], the “agonist activity at the S1P4 receptor” value is “good agonist activity”. Moreover, the “agonist activity at S1P receptors” value in [9] is given as “significant agonist activity”.
For the compound `CCCCCCCCCc1cccc(NC(=O)[C@H](N)COP(=O)(O)O)c1` [VPC23079], the “agonism or inverse agonism (antagonism)” value in assay [4] is “agonism”. Further, the “activity at the S1P2 receptor” value in assay [5] is “inactive; also recorded: failed to show significant activity”.
Regarding `CCCCCCCCc1ccccc1NC(=O)[C@H](N)CO` [VPC23087], the “activity at the S1P2 receptor” value in [5] was “inactive; also recorded: failed to show significant activity”. In addition, the “agonist activity at the S1P4 receptor” value in assay [8] is “good agonist activity”. In assay [9], the “agonist activity at S1P receptors” value was “significant agonist activity”.
As for `CCCCCCCCc1ccccc1NC(=O)[C@H](N)COP(=O)(O)O` [VPC23089], the “agonism or inverse agonism (antagonism)” value in [4] was “inverse agonists”. The “activity at the S1P2 receptor” value in [5] was “inactive; also recorded: failed to show significant activity”.

A word on the EC50: it is the concentration giving half of the maximal effect.
